Reference: patent US8999365B2, “Prevention of bacterial contamination” (priority 2005, dated 2015)

Columns and labels:
[1] = test system: Staphylococcus epidermidis; test: Growth of adherent bacteria on treated surfaces in Tryptic Yeast Extract medium; assay type: cell-based; details: for Growth after 1 day / Growth after 5 days: cell culture IV, Tryptic Yeast Extract medium, 37° C.
Protocol: The ability of bacteria to grow on coated and non-coated surfaces was determined by adding 4 mL of Tryptic Yeast Extract medium to each well and incubating at 37° C.

[2] = Physicochemical properties of delmopinol (pKa, solubility of base)
[3] = test system: Staphylococcus epidermidis
Protocol: (§1) Procedure A: The test surfaces were treated with 2 mL of the 2% aqueous solution of delmopinol HCl and left unstirred for 15 minutes at room temperature. All delmopinol solution was removed with a pipette. The wells were then thoroughly rinsed three times with 4 mL of a potassium phosphate buffer, 10 mM, pH 7.2. […] Procedure B: The test surfaces were treated with 2 mL of the 2% aqueous solution of delmopinol HCl and left overnight to dry. Microorganisms
(§2) A fresh bacterial strain of Staphylococcus epidermidis was isolated from skin and stored in milk powder at −80° C. The day before experimental use, bacteria were transferred to blood agar and incubated in an atmosphere of 95% H2 and 5% CO2 at 37° C. overnight. Colony-forming units were collected from the blood agar and suspended in 10 mM potassium phosphate buffer, pH 7.2, to an optical density at 600 nm of 0.4, corresponding to approximately 10^8 cells/mL.
The bacterial viability of the bacterial suspension, indicated by the vitality percentages, was assessed by fluorescence microscopy using the Live/Dead Bacterial Viability method Molecular Probes, Inc. Eugene, Oreg., USA) according to the instructions of the manufacturer. Thus, SYTO 9 (1.5 μL) and propidium iodide (1.5 μL) were mixed with 1 mL of 10 mM phosphate buffer, pH 7.2. Aliquots of 10 μL were added to 10 μL cell suspension and analysed at 1000× for green/LIVE and red/DEAD cells in the fluorescence microscope (Leitz Aristoplan microscope equipped with a halogen lamp and a 470-490 nm excitation filter).
Four mL of the bacterial suspension was added on top of coated and non-coated test surfaces mounted in Petri dishes. The cells were allowed to adhere for 60 min at 37° C. Non-adherent cells were removed by rinsing the surfaces three times with 4 mL of the buffer solution. […] A 10 μL-aliquot of the mixture was added to the surface and analysed after 10 min incubation in the dark. Microscopic images of adherent cells were analysed from 10 fields of each disc. […]

[4] = test system: Staphylococcus epidermidis; test: Adhesion assay: total attached cells on delmopinol-coated discs; details: mean of Exp. I-III
Protocol: The different materials were obtained as discs with an approximate diameter of 30 mm and a thickness of 1 mm. These discs were then mounted in the bottom of Petri dishes
as §1, §2
Four mL of the bacterial suspension was added on top of coated and non-coated test surfaces mounted in Petri dishes. […] A 10 μL-aliquot of the mixture was added to the surface and analysed after 10 min incubation in the dark. Microscopic images of adherent cells were analysed from 10 fields of each disc. […]

[5] = coated versus non-coated surfaces

## CCCC(CCC)CCCC1COCCN1CCO (stereo not shown) [delmopinol, 3-(4-propyl-heptyl)-4-(2-hydroxyethyl) morpholine]
[1]; [5]
  growth of surface-associated bacteria (conclusion): significantly inhibited growth
[1]; stainless steel coated
  Growth after 1 day: no
  Growth after 5 days: no
[1]; titanium coated
  Growth after 1 day: no
  Growth after 5 days: no
[2]
  pKa: 7.1
[3]
  percentage viable cells, Mean: 9 percentage
[3]; [5]
  viability of adherent cells on delmopinol-coated surfaces (conclusion): significant reduction
[4]; stainless steel coated with 2% delmopinol HCl
  number of attached cells per mm^2, Mean: 418 cells per mm^2
[4]; titanium coated with 2% delmopinol HCl
  number of attached cells per mm^2, Mean: 207 cells per mm^2
